# Values joined by “and” are separate entries in the source; they are usually repeats but may differ in a detail not shown here. Equal values may be shown once.
# Experiments:
# [1] = test system: cardiomyocytes; assay: NFAT4 gene expression upon stimulation with tyramine in absence or presence of clorgyline; assay type: cell-based
# [2] = test system: myocytes; assay: EMT gene expression upon stimulation with tyramine; assay type: cell-based; conditions: tyramine 10 μM
# [3] = test system: HL-1 cardiomyocytes; assay: Oxidative stress (mitochondrial ROS production) upon H2O2 or arachidonic acid; assay type: cell-based; conditions: for Levels of oxidative stress, Arachidonic acid (% increase vs control): 5 μM arachidonic acid, no treatment 145.6 ± 3.8; for Levels of oxidative stress, Arachidonic acid (% increase vs control) / Levels of oxidative stress, H2O2 (% increase vs control): clorgyline 1 μM; for Levels of oxidative stress, H2O2 (% increase vs control): 100 μM H2O2, no treatment 156.2 ± 4.3; for rise in ROS production / protection: H2O2 or arachidonic acid stimulated HL-1 cardiomyocytes, cell pretreatment
# Protocol: In vivo, mitochondria and the respiratory chain, in particular, are considered a major intracellular ROS source^15. MAOs are located in the outer membrane of these organelles and MAO-A can increase oxidative burden. When HL-1 cardiomyocytes were incubated with 100 μM H2O2 or 5 μM arachidonic acid, a rise in ROS production at mitochondrial level was observed (Table 6).
# [4] = test system: caspase-3; assay: Cleaved caspase-3 levels after 6 weeks of TAC; assay type: in vivo; conditions: 6 weeks TAC mice, FIG. 1
# Text: Levels of cleaved caspase-3 were markedly elevated after 6 weeks in TAC mice vs shams.
# [5] = test system: TAC-induced pressure overload; assay: Transverse aortic constriction (TAC) pressure overload in mice, cardiac morphology and in vivo ventricular function; conditions: for EF (ejection fraction) / FS (fractional shortening) / Heart rate / IVS (interventricular septum) / LV mass/BW / LVEDD (left ventricular end-diastolic dimension) / LVESD (left ventricular end-systolic dimension) / LVPW (left ventricular posterior wall): clorgyline 1 mg/kg/day
# [6] = test system: neonatal rat cardiomyocytes; assay: MAO-A and BNP gene expression after NE in absence or presence of clorgyline; assay type: cell-based
# Text: This process may contribute to the development of […]
smiles,measurement,setting,value
NCCc1ccc(O)cc1 [tyramine],increase of NFAT4 expression,[1]; tyramine incubation of cardiomyocytes,2 fold
same,NFAT4 gene expression (normalized to GAPDH),"[1]; tyramine, −clorgyline, control 0.24 ± 0.03",0.38 ± 0.01
same,increase in EMT gene expression,[2],2 fold
same,EMT/GAPDH gene expression,[2]; control 0.5 ± 0.04,0.97 ± 0.2
C#CCN(C)[C@H](C)Cc1ccccc1 [deprenyl],"Levels of oxidative stress, Arachidonic acid (% increase vs control)",[3],142.4 ± 0.3 % increase vs control
same,"Levels of oxidative stress, H2O2 (% increase vs control)",[3],150.7 ± 4.9 % increase vs control
same,rise in ROS production / protection,[3],No protection
C#CCN(C)CCCOc1ccc(Cl)cc1Cl [clorgyline],NFAT4 gene expression (normalized to GAPDH),"[1]; Control (no tyramine), +clorgyline",0.23 ± 0.02
same,NFAT4 gene expression (normalized to GAPDH),"[1]; Tyramine, +clorgyline (preincubation)",0.32 ± 0.02
same,effect on tyramine-induced increase of NFAT4 expression,[1]; preincubation with clorgyline prior to tyramine treatment,reduced this effect significantly
same,caspase-3 activation (cleaved caspase-3),[4],prevented caspase-3 activation
same,"Levels of oxidative stress, Arachidonic acid (% increase vs control)",[3],98.3 ± 1.3 % increase vs control
same,"Levels of oxidative stress, H2O2 (% increase vs control)",[3],122.6 ± 3 % increase vs control
same,rise in ROS production / protection,[3],"completely prevented, or reduced"
same,EF (ejection fraction),[5]; TAC 3 weeks,91.6 ± 0.4^C %
same,FS (fractional shortening),[5]; TAC 3 weeks,56.8 ± 1.9^C %
same,Heart rate,[5]; TAC 3 weeks,702 ± 12 bpm
same,IVS (interventricular septum),[5]; TAC 3 weeks,1.3 ± 0.02^B mm
same,LV mass/BW,[5]; TAC 3 weeks,6.4 ± 0.3^B mg/g
same,LVEDD (left ventricular end-diastolic dimension),[5]; TAC 3 weeks,2.9 ± 0.06 mm
same,LVESD (left ventricular end-systolic dimension),[5]; TAC 3 weeks,1.2 ± 0.06 mm
same,LVPW (left ventricular posterior wall),[5]; TAC 3 weeks,1.2 ± 0.03^B mm
same,Heart rate,[5]; TAC 6 weeks,670 ± 13.7 bpm
same,IVS (interventricular septum),[5]; TAC 6 weeks,1.4 ± 0.03^B mm
same,LV mass/BW,[5]; TAC 6 weeks,"7.2 ± 0.4^B, D mg/g"
same,LVEDD (left ventricular end-diastolic dimension),[5]; TAC 6 weeks,3.0 ± 0.08^D mm
same,LVESD (left ventricular end-systolic dimension),[5]; TAC 6 weeks,1.2 ± 0.04^D mm
same,LVPW (left ventricular posterior wall),[5]; TAC 6 weeks,"1.3 ± 0.03^B, D mm"
same,EF (ejection fraction),"[5]; TAC 6 weeks, listed as CLO",93.6±0.4% and 94.3 ± 0.4^D %
same,FS (fractional shortening),"[5]; TAC 6 weeks, listed as CLO",61±0.8% and 61.6 ± 0.9^D %
same,"levels of hypertrophy (LV mass, LVEDD, LVESD)","[5]; TAC, vs saline-treated TAC mice",reduced
same,wall thickness,"[5]; after 3 weeks of TAC, compared to sham operated animals",increased
same,LV function,"[5]; after 3 weeks of TAC, vs saline-treated TAC mice",significantly better
same,LV function,"[5]; at 6 weeks of TAC, vs saline-treated TAC mice",improved
same,BNP (vs GAPDH) gene expression,"[6]; NE 10 μM 24 hrs in presence of clorgyline, NE alone 8.9 ± 1.4",4.85 ± 0.9 ^#
"NC[C@H](O)c1ccc(O)c(O)c1 [NE, norepinephrine]",MAO-A gene expression and hypertrophy (BNP expression),[6]; NE 10 μM for 24 hrs,up-regulation of MAO-A gene expression and induction of hypertrophy
same,MAO-A (vs GAPDH) gene expression,"[6]; NE 10 μM, 24 hrs, control 0.58 ± 0.05",1.85 ± 0.04
same,BNP (vs GAPDH) gene expression,"[6]; NE 10 μM, 24 hrs, control 1 ± 0",8.9 ± 1.4

# From US20090286883A1, “TREATMENT OF HEART FAILURE AND ASSOCIATED CONDITIONS BY ADMINISTRATION OF MONOAMINE OXIDASE INHIBITORS” (Universita' degli Studi di Padova (University of Padua), priority 2008, published 2009)
